Reference: US8129371B2, “Thienopyrimidine and pyrazolopyrimidine compounds and their use as mTOR kinase and PI3 kinase inhibitors” (Wyeth LLC, priority 2007, dated 2012)

Columns and labels:
prostate line LNCap = assay: In vitro cell culture growth assay (MTS), LNCap; type: cell-based; conditions: Homo sapiens, LNCaP, 72 h, LNCap cells, three days after drug treatment
Procedure, shortened: (§1)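 Cells were plated and, one day later, treated with inhibitors. Three days after treatment, viable cell density was measured by MTS dye conversion, read as absorbance at 490 nm. Effects are expressed as percent of control growth versus vehicle-treated cells on the same plate.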

PI3K [1] = target: T1, PI3K (Homo sapiens, UniProt P42336); assay: Fluorescence polarization assay for PI3K; type: biochemical; conditions: PI3 Kinase α; read-out: PI3 Kinase α IC50
T1 construct: PI3 Kinase α IC50; other: PI3 Kinase α; other: PI3 Kinase α isoform, fluorescence polarization
Procedure, shortened: (§2)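 Fluorescence-polarization competition readout: after 30–60 min of PIP2/ATP turnover in 1% DMSO, a stop mix with GST-GRP (70 nM) and red probe (10 nM) was added.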

PI3K [2] = target: T2, PI3K (Homo sapiens, UniProt P48736); assay: Fluorescence polarization assay for PI3K; type: biochemical; conditions: PI3 Kinase γ; read-out: PI3 Kinase γ IC50
T2 construct: PI3 Kinase γ IC50; other: PI3 Kinase γ; other: PI3 Kinase γ isoform, fluorescence polarization
Procedure, shortened: as §2

breast line MDA468 = assay: In vitro cell culture growth assay (MTS), MDA468; type: cell-based; conditions: Homo sapiens, 72 h, MDA468 cells, three days after drug treatment
Procedure, shortened: as §1

Human mTOR (FLAG-TOR) = target: T3, Human mTOR (FLAG-TOR) (Homo sapiens, UniProt P42345); assay: Human mTOR kinase assay with purified enzyme, DELFIA format; type: biochemical
T3 construct: FLAG
Procedure, shortened: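 DELFIA readout: Eu-anti-P(T389)-S6K antibody (40 ng/mL, 1 h) on captured His6-S6K from the stopped reaction. Kinase step used purified FLAG-tagged human mTOR with test compound in HEPES (pH 7.4)/MnCl2/DTT buffer, 2 h at room temperature (linear 1–6 h), terminated by EDTA/EGTA.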

T2 sequence (P48736 whole entry, canonical isoform): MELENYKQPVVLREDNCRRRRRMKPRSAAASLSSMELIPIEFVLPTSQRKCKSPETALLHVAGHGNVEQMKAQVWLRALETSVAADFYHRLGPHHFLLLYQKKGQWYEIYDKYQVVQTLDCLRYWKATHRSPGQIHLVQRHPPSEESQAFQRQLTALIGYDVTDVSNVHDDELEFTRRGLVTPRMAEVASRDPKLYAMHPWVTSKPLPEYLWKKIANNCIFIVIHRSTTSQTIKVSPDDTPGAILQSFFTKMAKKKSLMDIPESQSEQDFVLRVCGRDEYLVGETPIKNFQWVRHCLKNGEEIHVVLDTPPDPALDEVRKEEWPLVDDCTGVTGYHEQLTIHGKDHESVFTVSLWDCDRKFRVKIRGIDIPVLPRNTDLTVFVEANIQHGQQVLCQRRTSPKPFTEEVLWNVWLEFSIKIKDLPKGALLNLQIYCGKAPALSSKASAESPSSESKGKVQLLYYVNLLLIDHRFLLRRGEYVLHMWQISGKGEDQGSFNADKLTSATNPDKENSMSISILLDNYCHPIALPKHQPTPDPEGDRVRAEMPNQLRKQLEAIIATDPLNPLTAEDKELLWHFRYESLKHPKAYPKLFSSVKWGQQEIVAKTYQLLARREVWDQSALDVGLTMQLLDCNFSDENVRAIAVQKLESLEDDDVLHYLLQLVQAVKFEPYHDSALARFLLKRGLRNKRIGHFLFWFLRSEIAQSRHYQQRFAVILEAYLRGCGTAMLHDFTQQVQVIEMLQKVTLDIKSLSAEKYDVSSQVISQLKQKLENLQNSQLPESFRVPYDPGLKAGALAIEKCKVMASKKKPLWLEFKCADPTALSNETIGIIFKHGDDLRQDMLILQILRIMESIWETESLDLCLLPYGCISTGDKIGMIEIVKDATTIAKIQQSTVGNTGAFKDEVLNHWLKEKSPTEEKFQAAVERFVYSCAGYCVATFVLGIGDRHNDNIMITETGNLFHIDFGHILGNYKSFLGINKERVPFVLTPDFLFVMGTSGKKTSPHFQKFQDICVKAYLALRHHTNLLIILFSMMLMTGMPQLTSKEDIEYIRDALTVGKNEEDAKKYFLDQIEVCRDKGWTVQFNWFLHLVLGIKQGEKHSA
T1 sequence (P42336 whole entry, canonical isoform): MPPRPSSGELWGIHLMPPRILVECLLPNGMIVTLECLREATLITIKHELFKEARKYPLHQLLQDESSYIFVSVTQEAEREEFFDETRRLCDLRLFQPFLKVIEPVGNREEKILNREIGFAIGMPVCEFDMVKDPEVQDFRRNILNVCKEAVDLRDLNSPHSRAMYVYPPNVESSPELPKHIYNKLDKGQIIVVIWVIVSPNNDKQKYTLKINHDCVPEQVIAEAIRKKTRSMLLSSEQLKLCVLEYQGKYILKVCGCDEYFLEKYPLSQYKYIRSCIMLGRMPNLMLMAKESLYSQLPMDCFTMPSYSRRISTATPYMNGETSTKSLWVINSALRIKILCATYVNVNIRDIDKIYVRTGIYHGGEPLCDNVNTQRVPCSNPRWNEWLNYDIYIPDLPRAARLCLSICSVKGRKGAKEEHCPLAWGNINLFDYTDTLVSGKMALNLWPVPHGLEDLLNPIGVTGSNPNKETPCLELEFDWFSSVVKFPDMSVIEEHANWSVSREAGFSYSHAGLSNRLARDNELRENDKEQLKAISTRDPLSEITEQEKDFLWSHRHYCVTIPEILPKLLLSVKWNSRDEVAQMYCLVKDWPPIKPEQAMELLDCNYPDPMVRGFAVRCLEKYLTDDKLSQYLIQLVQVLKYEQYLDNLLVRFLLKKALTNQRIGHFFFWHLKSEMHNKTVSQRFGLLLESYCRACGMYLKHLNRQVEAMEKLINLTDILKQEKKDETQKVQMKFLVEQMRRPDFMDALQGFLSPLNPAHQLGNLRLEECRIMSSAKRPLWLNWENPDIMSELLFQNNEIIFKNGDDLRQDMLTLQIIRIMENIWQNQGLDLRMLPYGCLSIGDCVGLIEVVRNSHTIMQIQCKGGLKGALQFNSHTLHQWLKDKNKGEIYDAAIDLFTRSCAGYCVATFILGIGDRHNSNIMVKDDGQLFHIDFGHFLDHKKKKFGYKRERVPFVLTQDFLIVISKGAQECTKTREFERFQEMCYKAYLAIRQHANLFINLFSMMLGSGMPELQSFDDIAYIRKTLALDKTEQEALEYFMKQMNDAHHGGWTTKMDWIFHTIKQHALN

IC50 (prostate line LNCap) [nM]	IC50 (PI3K [1]) [nM]	IC50 (PI3K [2]) [nM]	IC50 (Human mTOR (FLAG-TOR)) [nM]	Compound	IC50 (breast line MDA468) [nM]
1	953	5380	0.2	CC(C)n1ncc2c(N3CC4CCC(C3)O4)nc(-c3ccc(NC(=O)NC4CC4)cc3)nc21 [Example 142, 1-cyclopropyl-3-{4-[1-isopropyl-4-(8-oxa-3-azabicyclo[3.2.1]oct-3-yl)-1H-pyrazolo[3,4-d]pyrimidin-6-yl]phenyl}urea]	48
10	246	4580	0.076	CC(C)n1ncc2c(N3CC4CCC(C3)O4)nc(-c3ccc(NC(=O)NCCO)cc3)nc21 [Example 143, 1-(2-hydroxyethyl)-3-{4-[1-isopropyl-4-(8-oxa-3-azabicyclo[3.2.1]oct-3-yl)-1H-pyrazolo[3,4-d]pyrimidin-6-yl]phenyl}urea]	70
23	831	11000	0.27	CC(C)n1ncc2c(N3CC4CCC(C3)O4)nc(-c3ccc(NC(=O)OCCO)cc3)nc21 [Example 144, 2-hydroxyethyl {4-[1-isopropyl-4-(8-oxa-3-azabicyclo[3.2.1]oct-3-yl)-1H-pyrazolo[3,4-d]pyrimidin-6-yl]phenyl}carbamate]	270
250	3360	> 10000	2.75	CC(C)n1ncc2c(N3CC4CCC(C3)O4)nc(-c3ccc(NC(=O)OCCCO)cc3)nc21 [Example 145, 3-hydroxypropyl {4-[1-isopropyl-4-(8-oxa-3-azabicyclo[3.2.1]oct-3-yl)-1H-pyrazolo[3,4-d]pyrimidin-6-yl]phenyl}carbamate]	12000
110	2150	7640	2.9	CC(C)n1ncc2c(N3CC4CCC(C3)O4)nc(-c3ccc(NC(=O)OCC(O)CO)cc3)nc21 (stereo not drawn) [Example 146, 2,3-dihydroxypropyl {4-[1-isopropyl-4-(8-oxa-3-azabicyclo[3.2.1]oct-3-yl)-1H-pyrazolo[3,4-d]pyrimidin-6-yl]phenyl}carbamate]	580
< 1	30	475	0.185	CC(C)n1ncc2c(N3CC4CCC(C3)O4)nc(-c3ccc(NC(=O)Nc4ccccc4)cc3)nc21 [Example 147, 1-{4-[1-isopropyl-4-(8-oxa-3-azabicyclo[3.2.1]oct-3-yl)-1H-pyrazolo[3,4-d]pyrimidin-6-yl]phenyl}-3-phenylurea]	18
< 1	49	781	0.064	CC(C)n1ncc2c(N3CC4CCC(C3)O4)nc(-c3ccc(NC(=O)Nc4cccnc4)cc3)nc21 [Example 148, 1-{4-[1-isopropyl-4-(8-oxa-3-azabicyclo[3.2.1]oct-3-yl)-1H-pyrazolo[3,4-d]pyrimidin-6-yl]phenyl}-3-pyridin-3-ylurea]	9
< 1	40	342	0.125	CC(C)n1ncc2c(N3CC4CCC(C3)O4)nc(-c3ccc(NC(=O)Nc4ccncc4)cc3)nc21 [Example 149, 1-{4-[1-isopropyl-4-(8-oxa-3-azabicyclo[3.2.1]oct-3-yl)-1H-pyrazolo[3,4-d]pyrimidin-6-yl]phenyl}-3-pyridin-4-ylurea]	4
2	648	> 10000	0.745	CNC(=O)Nc1ccc(-c2nc(N3CC4CCC(C3)O4)c3cnn(C4CCC(OC)(OC)CC4)c3n2)cc1 [Example 150, 1-{4-[1-(4,4-dimethoxycyclohexyl)-4-(8-oxa-3-azabicyclo[3.2.1]oct-3-yl)-1H-pyrazolo[3,4-d]pyrimidin-6-yl]phenyl}-3-methylurea]	35
8	363	> 10000	1.19	CNC(=O)Nc1ccc(-c2nc(N3CC4CCC(C3)O4)c3cnn(C4CCC5(CC4)OCCCO5)c3n2)cc1 [Example 151, 1-{4-[1-(1,5-dioxaspiro[5.5]undec-9-yl)-4-(8-oxa-3-azabicyclo[3.2.1]oct-3-yl)-1H-pyrazolo[3,4-d]pyrimidin-6-yl]phenyl}-3-methylurea]	130
3	566	> 10000	0.6	CNC(=O)Nc1ccc(-c2nc(N3CC4CCC(C3)O4)c3cnn(C4CCC5(CC4)OCC(C)(C)CO5)c3n2)cc1 [Example 152, 1-{4-[1-(3,3-dimethyl-1,5-dioxaspiro[5.5]undec-9-yl)-4-(8-oxa-3-azabicyclo[3.2.1]oct-3-yl)-1H-pyrazolo[3,4-d]pyrimidin-6-yl]phenyl}-3-methylurea]	180
400	966	4240	14.5	CNC(=O)Nc1ccc(-c2nc(N3CC4CCC(C3)O4)c3cnn(CCN(C)C)c3n2)cc1 [Example 153, 1-(4-{1-[2-(dimethylamino)ethyl]-4-(8-oxa-3-azabicyclo[3.2.1]oct-3-yl)-1H-pyrazolo[3,4-d]pyrimidin-6-yl}phenyl)-3-methylurea]	2200
2900	4280	> 10000	85	COC(=O)Nc1ccc(-c2nc(N3CC4CCC(C3)O4)c3cnn(CCN(C)C)c3n2)cc1 [Example 154, methyl (4-{1-[2-(dimethylamino)ethyl]-4-(8-oxa-3-azabicyclo[3.2.1]oct-3-yl)-1H-pyrazolo[3,4-d]pyrimidin-6-yl}phenyl)carbamate]	19000
1	82	1170	1.75	CN(C)CCn1ncc2c(N3CC4CCC(C3)O4)nc(-c3ccc(NC(=O)Nc4ccc(CCO)cc4)cc3)nc21 [Example 155, 1-(4-{1-[2-(dimethylamino)ethyl]-4-(8-oxa-3-azabicyclo[3.2.1]oct-3-yl)-1H-pyrazolo[3,4-d]pyrimidin-6-yl}phenyl)-3-[4-(2-hydroxyethyl)phenyl]urea]	110
1	160	1530	2.65	CN(C)CCn1ncc2c(N3CC4CCC(C3)O4)nc(-c3ccc(NC(=O)Nc4ccccc4)cc3)nc21 [Example 156, 1-(4-{1-[2-(dimethylamino)ethyl]-4-(8-oxa-3-azabicyclo[3.2.1]oct-3-yl)-1H-pyrazolo[3,4-d]pyrimidin-6-yl}phenyl)-3-phenylurea]	68
50	235	3120	2.7	CN(C)CCn1ncc2c(N3CC4CCC(C3)O4)nc(-c3ccc(NC(=O)Nc4cccnc4)cc3)nc21 [Example 157, 1-(4-{1-[2-(dimethylamino)ethyl]-4-(8-oxa-3-azabicyclo[3.2.1]oct-3-yl)-1H-pyrazolo[3,4-d]pyrimidin-6-yl}phenyl)-3-pyridin-3-ylurea]	220
680	3520	> 10000	27	CN(C)CCn1ncc2c(N3CC4CCC(C3)O4)nc(-c3ccc(NC(=O)OCCO)cc3)nc21 [Example 158, 2-hydroxyethyl (4-{1-[2-(dimethylamino)ethyl]-4-(8-oxa-3-azabicyclo[3.2.1]oct-3-yl)-1H-pyrazolo[3,4-d]pyrimidin-6-yl}phenyl)carbamate]	5000
18	188	3820	4.85	CN(C)CCn1ncc2c(N3CC4CCC(C3)O4)nc(-c3ccc(NC(=O)Nc4ccc(N5CCN(C)CC5)cc4)cc3)nc21 [Example 159, 1-(4-{1-[2-(dimethylamino)ethyl]-4-(8-oxa-3-azabicyclo[3.2.1]oct-3-yl)-1H-pyrazolo[3,4-d]pyrimidin-6-yl}phenyl)-3-[4-(4-methylpiperazin-1-yl)phenyl]urea]	90
280	3120	> 10000	13	CCNC(=O)Nc1ccc(-c2nc(N3CC4CCC(C3)O4)c3cnn(CCN(C)C)c3n2)cc1 [Example 160, 1-(4-{1-[2-(dimethylamino)ethyl]-4-(8-oxa-3-azabicyclo[3.2.1]oct-3-yl)-1H-pyrazolo[3,4-d]pyrimidin-6-yl}phenyl)-3-ethylurea]	1800
210	3600	> 10000	8.4	CN(C)CCn1ncc2c(N3CC4CCC(C3)O4)nc(-c3ccc(NC(=O)NC4CC4)cc3)nc21 [Example 161, 1-cyclopropyl-3-(4-{1-[2-(dimethylamino)ethyl]-4-(8-oxa-3-azabicyclo[3.2.1]oct-3-yl)-1H-pyrazolo[3,4-d]pyrimidin-6-yl}phenyl)urea]	2200
50	173	482	1.2	CN(C)CCn1ncc2c(N3CC4CCC(C3)O4)nc(-c3ccc(NC(=O)Nc4ccncc4)cc3)nc21 [Example 162, 1-(4-{1-[2-(dimethylamino)ethyl]-4-(8-oxa-3-azabicyclo[3.2.1]oct-3-yl)-1H-pyrazolo[3,4-d]pyrimidin-6-yl}phenyl)-3-pyridin-4-ylurea]	200
